Key:
[1] = tested on: diabetic db/db mice; assay: Passive avoidance test (short-term memory) in diabetic db/db mice (Experimental Example 7); format: in vivo; details: 14 and 28 weeks of age, compared to the control mice
Source text: (§1) In this study, 4-5 week old diabetic db/db mice were put onto a diet containing probucol 0.1% (w/w) or HA-1 0.2% (w/w) for either 10 or 24 weeks, till the age of 14 or 28 weeks, respectively. Passive avoidance test was used to assess short-term memory. Subsequently, the mice were sacrificed to obtain plasma and brain tissue samples for further analyses.

[2] = tested on: Rats subjected to sub-concussion (SC); assay: Rotarod test, brain injury (sub-concussion) study (Experimental Example 3); format: in vivo; details: at 12 weeks (FIG. 14)
Source text: Repeated sub-concussive head impacts are reported to impair psychomotor function. Rats were subjected to sham procedure, sub-concussion (SC) with control diet (AlN93M), SC with probucol, SC with aged garlic extract (AGE), or SC with HA-1 for 12 weeks.
Both rotarod and beam walk tests assess neuromotor function. On beam walk, the higher the slips show the more impairment. On rotarod, the lower the latency indicates the more impairment.

[3] = tested on: diabetic db/db mice; assay: Diabetic phenotype: plasma glucose, triglycerides, insulin, cholesterol in diabetic db/db mice; format: in vivo; details: for plasma cholesterol: 14 and 28 weeks of age (FIGS. 23G and 23H)
Source text: as §1
Elevation in plasma glucose, triglycerides and insulin are typical signs of diabetes, with cholesterol to lesser extent. Levels of plasma glucose, plasma triglyceride, plasma insulin, and plasma cholesterol levels were measured at 14 weeks of age and at 28 weeks of age (FIG. 23) (*p<0.05, **p<0.01, ***p<0.001, ****p<0.0001, n=12).

[4] = tested on: diabetic db/db mice; assay: BBB integrity (IgG extravasation) in diabetic db/db mice; format: in vivo; details: for IgG extravasation in CTX: 28-week old
Source text: as §1

[5] = tested on: Neurodegenerated cells (Parkinson's disease model); assay: Adenosine triphosphate (ATP) assay, Parkinson's disease model; format: cell-based, human; details: PD model; probucol 20 μM, SPQ 10 μM, HA-1 10 μM, L-Dopa 50 μM, 24 hours
Method: Perinatal tissue derived human stem cell model for Parkinson's disease (PD) was prepared using proprietary protocols to test the effect of new drug entities. Drug treatment was for 24 hours in all the assays.
Impaired energy metabolism and reduced ATP levels are common features of PD. Using the stem cell derived PD model, we measured ATP levels in drug treated (probucol, SPQ and HA-1 and L-Dopa) cells and compared with neurodegenerated (ND) cells.
Neurodegenerated cells were incubated with probucol (20 μM), SPQ (10 μM), HA-1 (10 μM) and L-Dopa (50 μM) for 24 hours (p<0.05; *p<0.05, **p<0.001, ***p<0.0001, ns=non-significant, n=3).

[6] = tested on: rat model of repeated sub-concussion; assay: Beamwalk test, rat model of repeated sub-concussion (Experimental Example 6); format: in vivo, Female PVG rats; details: rats, 12-week repeated sub-concussion, 2 cm beam; probucol 0.1% w/w, HA-1 0.2% w/w in diet (FIG. 20B)
Source text: (§2) Female PVG rats aged 5-7 weeks were used. Under complete anaesthesia with isoflurane, a 25 g weight was dropped onto lambda of the skull from a 1 m height. This was repeated consecutively for 10 times per procedure. The procedure was repeated 3 times per week (i.e., Monday, Wednesday, Friday) for the duration of 12 weeks. Sham group rats received the same procedure without the weight drops. The probucol treatment group received probucol which was supplemented into the diet at 0.1% w/w. The HA-1 treatment group received HA-1 also in the diet at 0.2% w/w for the entire duration of the study.
After the completion of 12-week sub-concussion procedures, neuromotor function was tested with established rotarod and beamwalk tests. On beamwalk, the higher the slips show, the more impairment. On rotarod, the lower the latency indicates the more impairment.

[7] = tested on: Pancreatic NIT-1 β-cells; assay: MTT viability assay on pancreatic NIT-1 β-cells; format: cell-based; details: glucose 25.5 mM (hyperglycemic); 10 μM probucol, 10 μM HA-1
Method: Cells were grown and processed in a Dulbecco's Modified Eagle's media with 11.5% foetal bovine serum, as per the protocols described below.
Specifically, the cells were cultured on T-75 cm^2 tissue culture flasks (Thermo Fisher Scientific®, Australia) and fed with Dulbecco's modified Eagle's medium (DMEM) (Gibco, Life Technologies, USA) supplemented with either 5.5 mM glucose or 25.5 mM glucose (Sigma Chemical Co, USA), 11.5% fetal bovine serum (Thermo Fisher Scientific, Australia), and 5% penicillin-streptomycin (Thermo Fisher Scientific, Australia). The β-cells were incubated in an environment of 5% CO2 in humidified air at 37° C. using a Nuaire NU-8500 Water Jacket CO2 Incubator (Nuaire, USA) for 72 hours.
The MTT assay for cellular mitochondrial activity is a common and an important analytical technique for determining the degree of cell viability and biological activity. Briefly, MTT was prepared as 5 mg/ml stock solution (Sigma Chemical CO, USA) in phosphate buffer, at pH 7.4 (Thermo Fisher Scientific, Australia). The undissolved residues were removed by sterile filtration. The stock solution was stored in a sterile environment at 4° C. in the dark and used within 7 days of preparation. […] Formazan was dissolved in 100 μl of dimethyl sulfoxide (DMSO) (Sigma Chemical CO, USA) via reverse pipetting and the resultant purple solution was analysed photometrically at 550 nm.

[8] = tested on: rat model of repeated sub-concussion; assay: Blood-brain barrier integrity (IgG extravasation), rat model of repeated sub-concussion; format: in vivo, Female PVG rats; details: rats, 12-week repeated sub-concussion
Source text: as §2
The rats were then sacrificed to obtain brain tissue for further analyses.
The increase of IgG extravasation in SC rats indicates disruption of the BBB, allowing blood-borne IgG to leak into the brain.

[9] = tested on: OC-1 cells; assay: Seahorse bioenergetics experiment (oxygen consumption rate) after cisplatin; format: cell-based
Method: Mitochondrial function was analysed by measuring oxygen consumption rate (OCR) using real-time Seahorse Flux Analyser XF 96 (Seahorse Bioscience, USA) with our well-established method (Kovacevic, Bozica, et al. “Novel hydrogel comprising non-ionic copolymer with various concentrations of pharmacologically active bile acids for cellular injectable gel.” Colloids and Surfaces B: Biointerfaces (2022): 113014). Briefly, the first injection was with media without glucose, with subsequent ATP synthase inhibitor oligomycin and FCCP (carbonyl cyanide-p-trifluoromethoxy phenylhydrazone) and the final injection was complex […] inhibitors Rotenone+antimycin A 77. The result was automatically generated and analysed by the wave software. The OC-1 cells were pre-treated with cisplatin at three different concentrations (20, 30 and 40 μM) for 24 or 48 hours to induce cytotoxicity prior to the seahorse bioenergetics assays.

[10] = 14 weeks of age, probucol 0.1% (w/w), HA-1 0.2% (w/w) in diet

SMILES | passive avoidance latency (short-term memory) [1] | rotarod latency (average) [2] | plasma cholesterol [3] | plasma insulin ([3]; 14 weeks of age) | plasma triglycerides ([3]; 14 weeks of age) | plasma / blood glucose [3, 10] | plasma / blood glucose ([3]; 28 weeks of age) | plasma insulin ([3]; 28 weeks of age) | plasma triglycerides ([3]; 28 weeks of age) | IgG extravasation in HPF ([4]; 14 weeks of age) | IgG extravasation in CTX [4] | IgG extravasation in HPF ([4]; 28 weeks) | ATP level [5] | foot slips in beamwalk test [6] | NIT-1 cell viability [7] | IgG extravasation in cortex (CTX) [8] | IgG extravasation in hippocampal formation (HPF) [8] | oxygen consumption rate (OCR) ([9]; OC-1 cells after 24 hours exposure to cisplatin (20, 30 and 40 μM)) | oxygen consumption rate (OCR) ([9]; OC-1 cells after 48 hours exposure to cisplatin (20, 30 and 40 μM))
CC(=O)O[C@@H]1CC[C@@]2(C)[C@H](CC[C@@H]3[C@@H]2CC[C@]2(C)[C@@H]([C@H](C)CCC(=O)Oc4c(C(C)(C)C)cc(SC(C)(C)Sc5cc(C(C)(C)C)c(O)c(C(C)(C)C)c5)cc4C(C)(C)C)CC[C@@H]32)C1 [HA-1, 2,6-di-tert-butyl-4-((2-((3,5-di-tert-butyl-4-hydroxyphenyl)thio)propan-2-yl)thio)phenyl (4R)-4-[(3R,5R,8R,9S,10S,13R,14S,17R)-3-acetoxy-10,13-dimethyl-2,3,4,5,6,7,8,9,11,12,14,15,16,17-tetradecahydro-1H-cyclopenta[a]phenanthren-17-yl]pentanoate] | significantly increased the latency | significantly increased the latency | no beneficial effects on plasma cholesterol | significantly reduced | significantly attenuated plasma triglycerides | modest decrease in blood glucose | significantly reduced blood glucose with HA-1 presenting greater effects | lost the ameliorative effects on insulin | significantly reduced plasma triglycerides | significantly attenuated | significantly reduced | significantly attenuated the BBB breakdown | Enhanced increase in ATP levels | completely normalised | even more profound effect on ameliorating cell death | more effective than probucol in attenuating BBB disruption | more effective than probucol in attenuating BBB disruption | significant and profound otoprotective effects | significantly reverse the cytotoxic effects of cisplatin
CC1(C)SC2(C=C(C(C)(C)C)C(=O)C(C(C)(C)C)=C2)C2(C=C(C(C)(C)C)C(=O)C(C(C)(C)C)=C2)S1 [SPQ, 2,4,9,11-tetrakis(1,1-dimethylethyl)-14,14-dimethyl-13,15-dithiadispiro[5.0.5.3]pentadeca-1,4,8,11-tetraene-3,10-dione] |  |  |  |  |  |  |  |  |  |  |  |  | Enhanced increase in ATP levels |  |  |  |  |  | 
CC(C)(Sc1cc(C(C)(C)C)c(O)c(C(C)(C)C)c1)Sc1cc(C(C)(C)C)c(O)c(C(C)(C)C)c1 [probucol, 2,6-ditert-butyl-4-[2-(3,5-ditert-butyl-4-hydroxyphenyl)sulfanylpropan-2-ylsulfanyl]phenol] |  |  | no beneficial effects on plasma cholesterol | significantly reduced | significantly attenuated plasma triglycerides | no significant effects | significantly reduced blood glucose | lost the ameliorative effects on insulin | significantly reduced plasma triglycerides | significantly attenuated | no beneficial effects on CTX IgG extravasation | did not show BBB protection |  | modestly attenuated | partially offset hyperglycaemia-induced pancreatic beta cell death | some reduction in the CTX IgG extravasation | no protection against BBB disruption in HPF |  | 
